From patent US9399649B2, “Compounds for treating spinal muscular atrophy” (PTC Therapeutics Inc., priority 2012, dated 2016)

Assays:
[1] = tested on: Smn protein; test: Smn protein assay in cultured cells (SMN HTRF); assay type: cell-based, human; conditions: SMA patient fibroblast cells (GM03813), 48 hours; for maximum fold (Fold) increase of Smn protein: 7-point concentration data, relative to vehicle control; for EC1.5x for Smn protein expression: 7-point concentration curve, concentration producing 1.5 times Smn protein vs DMSO vehicle
Experimental: The SMN HTRF (homogeneous time resolved fluorescence) assay is used to quantify the level of Smn protein in SMA patient fibroblast cells treated with test compounds.
Cells are thawed and cultured in DMEM-10% FBS for 72 hours. Cells are trypsinized, counted and re-suspended to a concentration of 25,000 cells/mL in DMEM-10% FBS. The cell suspensions are plated at 5,000 cells per well in a 96 well microtiter plate and incubated for 3 to 5 hours. […] Test compounds are serially diluted 3.16-fold in 100% DMSO to generate a 7-point concentration curve. 1 μL of test compound solution is transferred to cell-containing wells and cells are incubated for 48 hours in a cell culture incubator (37° C., 5% CO2, 100% relative humidity). Triplicate samples are set up for each test compound concentration. After 48 hours, the supernatant is removed from the wells and 25 μL of the RIPA lysis buffer, containing protease inhibitors, is added to the wells and incubated with shaking at room temperature for 1 hour. 25 μL of the diluent is added and then 35 μL of the resulting lysate is transferred to a 384-well plate, where each well contains 5 μL of the antibody solution (1:100 dilution of anti-SMN d2 and anti-SMN kryptate in SMN reconstitution buffer). The plate is centrifuged for 1 minute to bring the solution to the bottom of the wells, then incubated overnight at room temperature. Fluorescence for each well of the plate at 665 nm and 620 nm is measured on an EnVision multilabel plate reader (Perkin-Elmer).
The normalized fluorescence signal is calculated for each sample, Blank and vehicle control well by dividing the signal at 665 nm by the signal at 620 nm. Normalizing the signal accounts for possible fluorescence quenching due to the matrix effect of the lysate. The ΔF value (a measurement of Smn protein abundance as a percent value) for each sample well is calculated by subtracting the normalized average fluorescence for the Blank control wells from the normalized fluorescence for each sample well, then dividing this difference by the normalized average fluorescence for the Blank control wells and multiplying the resulting value by 100. The ΔF value for each sample well represents the Smn protein abundance from test compound-treated samples. The ΔF value for each sample well is divided by the ΔF value for the vehicle control wells to calculate the fold increase in Smn protein abundance relative to the vehicle control.

[2] = tested on: full length SMN2 minigene mRNA containing SMN2 exon 7; test: SMN2 minigene mRNA splicing RT-qPCR assay in cultured cells; assay type: cell-based, human; conditions: Homo sapiens, HEK293-H; HEK293H cells stably transfected with SMN2-A minigene, 24 hours, 7-point concentration curve; concentration giving 1.5-fold full length SMN2 mRNA vs vehicle; read-out: EC1.5x for production of full length SMN2 mRNA
Experimental: The reverse transcription-quantitative PCR-based (RT-qPCR) assay is used to quantify the level of the full length SMN2 minigene mRNA containing SMN2 exon 7 in a HEK293H cell line stably transfected with said minigene and treated with a test compound.
HEK293H cells stably transfected with the SMN2-A minigene construct described above (10,000 cells/well) are seeded in 200 ut, of cell culture medium (DMEM plus 10% FBS, with 200 μg/mL hygromycin) in 96-well flat-bottom plates and the plate is immediately swirled to ensure proper dispersal of cells, forming an even monolayer of cells. Cells are allowed to attach for at least 4-6 hours. Test compounds are serially diluted 3.16-fold in 100% DMSO to generate a 7-point concentration curve. A solution of test compound (1 μL, 200× in DMSO) is added to each cell-containing well and the plate is incubated for 24 hours in a cell culture incubator (37° C., 5% CO2, 100% relative humidity). 2 replicates are prepared for each test compound concentration. The cells are then lysed in Cells-To-Ct lysis buffer and the lysate is stored at −80° C.
Primer SMN Forward A (SEQ ID NO. 1) hybridizes to a nucleotide sequence in exon 7 (nucleotide 22 to nucleotide 40), primer SMN Reverse A (SEQ ID NO. 2) hybridizes to a nucleotide sequence in the coding sequence of Firefly luciferase, SMN Probe A (SEQ ID NO. 3) hybridizes to a nucleotide sequence in exon 7 (nucleotide 50 to nucleotide 54) and exon 8 (nucleotide 1 to nucleotide 21). The combination of these three oligonucleotides detects only SMN1 or SMN2 minigenes (RT-qPCR) and will not detect endogenous SMN1 or SMN2 genes.
The SMN forward and reverse primers are used at final concentrations of 0.4 μM. The SMN probe is used at a final concentration of 0.15 μM. The GAPDH primers are used at final concentrations of 0.2 μM and the probe at 0.15 μM.
The SMN2-minigene GAPDH mix (15 μL total volume) is prepared by combining 7.5 μL of 2×RT-PCR buffer, 0.4 μL of 25×RT-PCR enzyme mix, 0.75 μL of 20×GAPDH primer-probe mix, 4.0075 μL of water, 2 μL of 10-fold diluted cell lysate, 0.06 μL of 100 μM SMN forward primer, 0.06 μL of 100 μM SMN reverse primer, and 0.225 μL of 100 μM SMN probe.
PCR is carried out at the following temperatures for the indicated time: Step 1: 48° C. (15 min); Step 2: 95° C. (10 min); Step 3: 95° C. (15 sec); Step 4: 60° C. (1 min); then repeat Steps 3 and 4 for a total of 40 cycles.
Each reaction mixture contains both SMN2-A minigene and GAPDH primersprobe sets (multiplex design), allowing simultaneous measurement of the levels of two transcripts.
Two SMN spliced products are generated from the SMN2 minigene. The first spliced product containing exon 7, corresponding to full length SMN2 mRNA, is referred to herein using the term “SMN2 minigene FL.” The second spliced product lacking exon 7 is referred to herein using the term “SMN2 minigene Δ7.”
The increase of SMN2 minigene FL mRNA relative to that in cells treated with vehicle control is determined from real-time PCR data using a modified ΔΔCt method (as described in Livak and Schmittgen, Methods, 2001, 25:402-8). The amplification efficiency (E) is calculated from the slope of the amplification curve for SMN2 minigene FL and GAPDH individually. The abundances of SMN2 minigene FL and GAPDH are then calculated as (1+E)^−Ct, where Ct is the threshold value for each amplicon. The abundance of SMN2 minigene FL is normalized to GAPDH abundance. The normalized SMN2 minigene FL abundance from test compound-treated samples is then divided by normalized SMN2 minigene FL abundance from vehicle-treated cells to determine the level of SMN2 FL mRNA relative to vehicle control.

| Compound | maximum fold (Fold) increase of Smn protein [1] | EC (1.5-fold) [2] [µM] | melting point | EC1.5x for Smn protein expression [1] |
| --- | --- | --- | --- | --- |
| COc1ccccc1-c1cc2ccc(N3C[C@@H](C)N[C@@H](C)C3)cc2c(=O)o1 [Cpd 23, 7-[(3R,5S)-3,5-dimethylpiperazin-1-yl]-3-(2-methoxyphenyl)-1H-isochromen-1-one] | * (A maximum fold increase of ≦1.2 is indicated by one star (*)) | 1 to 3 | 154 to 157 °C | – |
| COc1ccc(-c2cc3ccc(N4CCNCC4)cc3c(=O)o2)cc1 [Cpd 24, 3-(4-methoxyphenyl)-7-(piperazin-1-yl)-1H-isochromen-1-one] | *** (a fold increase between >1.35 and ≦1.5 is indicated by three stars (***)) | 0.1 to 0.3 | 235 to 238 °C | *** (an EC1.5× between >0.3 nM and ≦1 nM is indicated by three stars (***)) |
| COc1ccc(-c2cc3ccc(N4CCN(C)CC4)cc3c(=O)o2)cc1 [Cpd 25, 3-(4-methoxyphenyl)-7-(4-methylpiperazin-1-yl)-1H-isochromen-1-one] | * (A maximum fold increase of ≦1.2 is indicated by one star (*)) | 1 to 3 | 166 to 168 °C | – |
| O=c1oc(-c2cn3ccccc3n2)cc2ccc(N3CCNCC3)cc12 [Cpd 26, 3-(imidazo[1,2-a]pyridin-2-yl)-7-(piperazin-1-yl)-1H-isochromen-1-one] | * (A maximum fold increase of ≦1.2 is indicated by one star (*)) | 1 to 3 | 248 °C (dec.) | – |
| CN1CCN(c2ccc3cc(-c4cn5ccccc5n4)oc(=O)c3c2)CC1 [Cpd 27, 3-(imidazo[1,2-a]pyridin-2-yl)-7-(4-methylpiperazin-1-yl)-1H-isochromen-1-one] | * (A maximum fold increase of ≦1.2 is indicated by one star (*)) | 3 to 30 | 252 to 254 °C | – |
| O=c1oc(-c2cn3ccsc3n2)cc2ccc(N3CCNCC3)cc12 [Cpd 28, 3-(imidazo[2,1-b][1,3]thiazol-6-yl)-7-(piperazin-1-yl)-1H-isochromen-1-one] | *** (a fold increase between >1.35 and ≦1.5 is indicated by three stars (***)) | 0.3 to 1 | 224 to 226 °C | – |
| COc1ccc(-c2cc3ccc(N4C[C@@H](C)N[C@@H](C)C4)cc3c(=O)o2)cc1 [Cpd 29, 7-[(3R,5S)-3,5-dimethylpiperazin-1-yl]-3-(4-methoxyphenyl)-1H-isochromen-1-one] | * (A maximum fold increase of ≦1.2 is indicated by one star (*)) | 0.3 to 1 | 109 to 110 °C | – |
| COc1ccc(-c2cc3ccc(N4CCN[C@@H](C)C4)cc3c(=O)o2)cc1OC [Cpd 30, 3-(3,4-dimethoxyphenyl)-7-[(3S)-3-methylpiperazin-1-yl]-1H-isochromen-1-one] | **** (a fold increase between >1.5 and ≦1.65 is indicated by four stars (****)) | ≤ 0.1 | 155 to 157 °C | **** (an EC1.5×≦0.3 nM is indicated by four stars (****)) |
| COc1ccc(-c2cc3ccc(N4CCN[C@@H](C)C4)cc3c(=O)o2)cc1 [Cpd 31, 3-(4-methoxyphenyl)-7-[(3S)-3-methylpiperazin-1-yl]-1H-isochromen-1-one] | **** (a fold increase between >1.5 and ≦1.65 is indicated by four stars (****)) | ≤ 0.1 | 129 to 131 °C | ** (an EC1.5× between >1 μM, and ≦3 nM is indicated by two stars (**)) |
| COc1ccccc1-c1cc2ccc(N3CCN[C@@H](C)C3)cc2c(=O)o1 [Cpd 32, 3-(2-methoxyphenyl)-7-[(3S)-3-methylpiperazin-1-yl]-1H-isochromen-1-one] | ** (a fold increase between >1.2 and ≦1.35 is indicated by two stars (**)) | 0.3 to 1 | 143 to 146 °C | – |
| CN1CCN(c2ccc3cc(-c4cn5ccsc5n4)oc(=O)c3c2)CC1 [Cpd 33, 3-(imidazo[2,1-b][1,3]thiazol-6-yl)-7-(4-methylpiperazin-1-yl)-1H-isochromen-1-one] | * (A maximum fold increase of ≦1.2 is indicated by one star (*)) | 1 to 3 | 236 to 238 °C | – |
| C[C@H]1CN(c2ccc3cc(-c4ccccn4)oc(=O)c3c2)CCN1 [Cpd 34, 7-[(3S)-3-methylpiperazin-1-yl]-3-(pyridin-2-yl)-1H-isochromen-1-one] | *** (a fold increase between >1.35 and ≦1.5 is indicated by three stars (***)) | 0.3 to 1 | 343 to 345 °C | * (An EC1.5× for Smn protein expression between >3 μM and <10 μM is indicated by one star (*)) |
| C[C@H]1CN(c2ccc3cc(-c4ccc5c(c4)OCCO5)oc(=O)c3c2)CCN1 [Cpd 35, 3-(2,3-dihydro-1,4-benzodioxin-6-yl)-7-[(3S)-3-methylpiperazin-1-yl]-1H-isochromen-1-one] | * (A maximum fold increase of ≦1.2 is indicated by one star (*)) | 0.3 to 1 | 175 to 177 °C | – |
| C[C@H]1CN(c2ccc3cc(-c4nc5ccccc5s4)oc(=O)c3c2)CCN1 [Cpd 36, 3-(1,3-benzothiazol-2-yl)-7-[(3S)-3-methylpiperazin-1-yl]-1H-isochromen-1-one] | * (A maximum fold increase of ≦1.2 is indicated by one star (*)) | 3 to 30 | 236 to 238 °C | – |
